Reference: patent US20140107051A1, “ISOFLAVONES FOR TREATING MUCOPOLYSACCHARIDOSES” (INSTYTUT FARMACEUTYCZNY, priority 2005, published 2014)
Entries after “also recorded” stand apart in the source; their conditions may differ. Where two headings read alike, the source gives them in different places.

Experiments:
[1] = tested on: cultured human skin fibroblasts derived from normal individuals; experiment: 35S-sulphate incorporation test of glycosaminoglycans synthesis, normal cells; type: cell-based; conditions: for Inhibition in relation to genistein, first symbol (normal cells) / activity at 30 µM / Relative GAG synthesis (converted to 1 cell), Normal cells: 30 μM; for activity at 30 µM: Homo sapiens, Skin fibroblast, read-out: Relative GAG synthesis (converted to 1 cell), Normal cells; for activity at 30 µM / Relative GAG synthesis (converted to 1 cell), Normal cells: DMSO control = 1
Description: (§1) The activity of isoflavones was evaluated by the measure of glycosaminoglycans synthesis in 35S-sulphate incorporation test comprising incubation of the radiolabelled 35S-sulfate into GAGs in cultured human skin fibroblasts derived from normal individuals (control) and patients affected with mucopolysaccharidose (Murata et al., Arch Biochem Biophys 2003; 413: 229-235).
(§2) The negative control was DMSO (diluent for genistein and all derivatives), the positive control—genistein. […] Experiment with each cell line has been repeated twice, and every measurement has been done twice.

[2] = tested on: fibroblasts of patients affected with MPS I; experiment: 35S-sulphate incorporation test of glycosaminoglycans synthesis, MPS I cells; type: cell-based, human; conditions: for activity at 30 µM: Homo sapiens, Fibroblast, read-out: Relative GAG synthesis (converted to 1 cell), MPS I; for activity at 30 µM / Relative GAG synthesis (converted to 1 cell), MPS I: DMSO control = 1; for activity at 30 µM / Inhibition in relation to genistein, second symbol (MPS I) / Relative GAG synthesis (converted to 1 cell), MPS I: 30 μM
Description: as §1, §2

[3] = tested on: cultured human skin fibroblasts derived from patients affected with mucopolysaccharidose; experiment: 35S-sulphate incorporation test of glycosaminoglycans synthesis, different human cell lines / MPS types; type: cell-based; conditions: for influence on GAG synthesis compared with genistein (in words): 30 μM, both cell lines of Table 2
Description: as §1, §2

[4] = Proliferation 144 h (Table 4); type: cell-based; conditions: read-out: Proliferation 144 h IC50
[5] = tested on: fibroblasts cells derived from patients affected with different MPSs; experiment: GAG level / deposits in cultured fibroblasts of MPS patients; type: cell-based, human
[6] = tested on: fibroblasts; experiment: Electron microscope observation of GAG deposits in fibroblasts; type: cell-based, human; conditions: fibroblasts cultured one week; genistein 10 micromolar
[7] = rat; intravenously administered; cited from earlier work
[8] = tested on: MPS IIIA fibroblasts; experiment: Number of lysosomal structures by electron microscopy, MPS IIIA; type: cell-based, human; conditions: 30 μM
[9] = tested on: MPS IIIB fibroblasts; experiment: Number of lysosomal structures by electron microscopy, MPS IIIB; type: cell-based, human; conditions: 30 μM
[10] = in vitro
[11] = tested on: glycosaminoglycan (GAG) synthesis; experiment: GAG synthesis, 35S incorp. (Table 4); type: cell-based
[12] = read-out: Cytotoxicity 24 h LC50, 24 h
[13] = read-out: Cytotoxicity 48 h LC50, 48 h

Compound: O=c1c(-c2ccc(O)cc2)coc2cc(O)cc(O)c12 [Genistein, 4′,5,7-trihydroxy-3-phenylchromen-4-on, reference compound]
- Inhibition in relation to genistein, first symbol (normal cells) [1]: 0
- activity at 30 µM [1]: 25%
- level of glycosaminoglycans synthesis (in words) ([1]; fibroblasts from normal individuals, FIG. 1): significant decreasing
- activity at 30 µM [2]: 51%
- level of glycosaminoglycans synthesis (in words) ([2]; fibroblasts from MPS 1 patients, FIG. 1): significant decreasing
- glycosaminoglycans synthesis (in words) ([3]; cells from individuals with other types of MPS, FIG. 2, FIG. 3): significantly reduced
- glycosaminoglycans synthesis (in words) ([3]; cultured fibroblasts from MPS patients, 10-30 micromoles/l): significant inhibition of glycosaminoglycans synthesis
- IC50 [4]: 16.9 µM
- level of glycosaminoglycans in cells (in words) ([5]; cells of MPS I, MPS II, MPS IIIA and MPS IIIB patients, six days): significantly decreased, reaching after six days a level almost identical with the normal one
- genistein concentrations at which decrease of GAG synthesis and reduction of deposits is observed ([5]; cultured fibroblasts): 10 to 20 µmol/L
- removal of GAG deposits accumulated in cells (in words) ([5]; few days of cultivation, genistein 10 micromoles/l, FIG. 4): deposits are gradually removed; also recorded: comparable with the activity of recombinant human α-L-iduronidase (Aldurazyme)
- deposits seen by electron microscope (in words) [6]: disappearance of deposits; also recorded: decline of the before accumulated glycosaminoglycans
- effectiveness of crossing the blood-brain barrier [7]: about 10%

Compound: CC(=O)Oc1ccc(-c2coc3cc(OC(C)=O)cc(OC(C)=O)c3c2=O)cc1 [IFG-032]
- Inhibition in relation to genistein, first symbol (normal cells) [1]: 0
- activity at 30 µM [1]: 25%
- activity at 30 µM [2]: 68%
- influence on GAG synthesis compared with genistein (in words) [3]: an activity comparable with genistein, but only for one cell line
- IC50 [4]: 17.4 µM
- Number of structures per 100 μm^2 of cellular cross section ± SD, amorphous [8]: 0.17 ± 0.16 per 100 μm^2
- Number of structures per 100 μm^2 of cellular cross section ± SD, complexed [8]: 0.22 ± 0.11 per 100 μm^2
- Number of structures per 100 μm^2 of cellular cross section ± SD, lamellar [8]: 0.14 ± 0.08 per 100 μm^2
- Number of structures per 100 μm^2 of cellular cross section ± SD, total number [8]: 0.53 ± 0.19 per 100 μm^2
- Number of structures per 100 μm^2 of cellular cross section ± SD, amorphous [9]: 0.12 ± 0.08 per 100 μm^2
- Number of structures per 100 μm^2 of cellular cross section ± SD, complexed [9]: 0.10 ± 0.07 per 100 μm^2
- Number of structures per 100 μm^2 of cellular cross section ± SD, lamellar [9]: 0.17 ± 0.11 per 100 μm^2
- Number of structures per 100 μm^2 of cellular cross section ± SD, total number [9]: 0.40 ± 0.20 per 100 μm^2
- CC50 at 24 h [10]: > 30 µM
- CC50 at 48 h [10]: > 30 µM

Compound: CCC(=O)OCOc1cc(O)c2c(=O)c(-c3ccc(O)cc3)coc2c1 [IFG-036]
- Inhibition in relation to genistein, first symbol (normal cells) [1]: 0/0
- Relative GAG synthesis (converted to 1 cell), Normal cells [1]: 0.27
- Inhibition in relation to genistein, second symbol (MPS I) [2]: 0/0
- Relative GAG synthesis (converted to 1 cell), MPS I [2]: 0.49
- influence on GAG synthesis compared with genistein (in words) [3]: an activity comparable with genistein
- IC50 [4]: 11.2 µM
- GAG synthesis 35S incorp. [11]: 64 ± 21%
- Number of structures per 100 μm^2 of cellular cross section ± SD, amorphous [8]: 0.22 ± 0.11 per 100 μm^2
- Number of structures per 100 μm^2 of cellular cross section ± SD, complexed [8]: 0.28 ± 0.16 per 100 μm^2
- Number of structures per 100 μm^2 of cellular cross section ± SD, lamellar [8]: 0.19 ± 0.14 per 100 μm^2
- Number of structures per 100 μm^2 of cellular cross section ± SD, total number [8]: 0.73 ± 0.31 per 100 μm^2
- Number of structures per 100 μm^2 of cellular cross section ± SD, amorphous [9]: 0.15 ± 0.18 per 100 μm^2
- Number of structures per 100 μm^2 of cellular cross section ± SD, complexed [9]: 0.12 ± 0.11 per 100 μm^2
- Number of structures per 100 μm^2 of cellular cross section ± SD, lamellar [9]: 0.25 ± 0.21 per 100 μm^2
- Number of structures per 100 μm^2 of cellular cross section ± SD, total number [9]: 0.50 ± 0.34 per 100 μm^2
- CC50 [12]: > 30 µM
- CC50 [13]: > 30 µM

Compound: CCCC[N+](CCCC)(CCCC)CCCC.O=C([O-])CCCC(=O)Oc1cc(O)c2c(=O)c(-c3ccc(O)cc3)coc2c1 [IFG-038]
- Relative GAG synthesis (converted to 1 cell), Normal cells [1]: 0.74
- Relative GAG synthesis (converted to 1 cell), MPS I [2]: 0.74
- influence on GAG synthesis compared with genistein (in words) [3]: an activity comparable with genistein
- IC50 [4]: 19.9 µM
- GAG synthesis 35S incorp. [11]: 55 ± 13%
- Number of structures per 100 μm^2 of cellular cross section ± SD, amorphous [8]: 0.21 ± 0.13 per 100 μm^2
- Number of structures per 100 μm^2 of cellular cross section ± SD, complexed [8]: 0.27 ± 0.13 per 100 μm^2
- Number of structures per 100 μm^2 of cellular cross section ± SD, lamellar [8]: 0.32 ± 0.16 per 100 μm^2
- Number of structures per 100 μm^2 of cellular cross section ± SD, total number [8]: 0.80 ± 0.24 per 100 μm^2
- Number of structures per 100 μm^2 of cellular cross section ± SD, amorphous [9]: 0.09 ± 0.09 per 100 μm^2
- Number of structures per 100 μm^2 of cellular cross section ± SD, complexed [9]: 0.10 ± 0.10 per 100 μm^2
- Number of structures per 100 μm^2 of cellular cross section ± SD, lamellar [9]: 0.21 ± 0.12 per 100 μm^2
- Number of structures per 100 μm^2 of cellular cross section ± SD, total number [9]: 0.41 ± 0.18 per 100 μm^2
- CC50 [12]: > 30 µM
- CC50 [13]: > 30 µM

Compound: Cc1ccc(S(=O)(=O)OCCOCCOCCOc2cc(O)c3c(=O)c(-c4ccc(O)cc4)coc3c2)cc1 [IFG-046]
- Inhibition in relation to genistein, first symbol (normal cells) [1]: −
- Relative GAG synthesis (converted to 1 cell), Normal cells [1]: 1.80
- Inhibition in relation to genistein, second symbol (MPS I) [2]: 0
- Relative GAG synthesis (converted to 1 cell), MPS I [2]: 0.49
- GAG synthesis 35S incorp. [11]: 118 ± 72%
- CC50 [12]: 20.7 µM

Compound: O=C([O-])CCCC(=O)Oc1ccc(-c2coc3cc(OCc4ccccc4)cc(O)c3c2=O)cc1.[Na+] [IFG-061]
- Inhibition in relation to genistein, first symbol (normal cells) [1]: 0/0
- Relative GAG synthesis (converted to 1 cell), Normal cells [1]: 0.28
- Relative GAG synthesis (converted to 1 cell), MPS I [2]: 0.46
- CC50 [12]: 18.8 µM

Compound: CCCC[N+](CCCC)(CCCC)CCCC.O=C([O-])COc1cc(O)c2c(=O)c(-c3ccc(O)cc3)coc2c1 [IFG-074, tetrabutylammonium[5-hydroxy-3-(4-hydroxy-phenyl)-4-oxo-4H-chromen-7-yloxy]acetate]
- IC50 [4]: 27.3 µM
- GAG synthesis 35S incorp. [11]: 88 ± 39%
- CC50 [12]: 44.1 µM
- CC50 [13]: 32.8 µM
